Literature values as cited in patent EP3731827B1, “ORAL PHARMACEUTICAL COMPOSITION COMPRISING POSACONAZOLE” (Sanovel Ilac Sanayi ve Ticaret A.S., priority 2017, dated 2019).
Like-named read-outs stand apart in the source and are kept apart here.

solubility (at pH 6.4 or higher): less than 1 µg/ml | solubility (in the stomach): about 0.8 mg/ml
SMILES: CC[C@@H]([C@H](C)O)n1ncn(-c2ccc(N3CCN(c4ccc(OC[C@@H]5CO[C@@](Cn6cncn6)(c6ccc(F)cc6F)C5)cc4)CC3)cc2)c1=O [posaconazole, 4-[4-[4-[4-[[(3R,5R)-5-(2,4-difluorophenyl)-5-(1,2,4-triazol-1-ylmethyl)oxolan-3-yl]methoxy]phenyl]piperazin-1-yl]phenyl]-2-[(2S,3S)-2-hydroxypentan-3-yl]-1,2,4-triazol-3-one]
